Legend:
CDK2/Cyclin E1 complex = CDK2/Cyclin E1 complex (Homo sapiens, UniProt P24941); assay: CDK2 kinase inhibition assay (Caliper/LabChip EZ Reader); assay type: biochemical; settings: CDK2/Cyclin E1 0.5 nM, ATP 2 mM, 35 min at 27° C.
How it was run: (§1)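 Caliper/LabChip mobility-shift kinase assays at 27° C. CDK9/Cyclin T1 8 nM with 2 μM 5-FAM-CDK9tide, 10 mM MgCl2, 15 min; CDK12/Cyclin K 50 nM with 5-FAM-CDK9tide 2 μM, 2 mM MgCl2, 3 hr; CDK2/Cyclin E1 0.5 nM with 5-FAM-CDK7tide 2 μM, 2 mM MgCl2, 35 min; CDK7 35 min.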

[1] = target: CDK7/Cyclin H/MAT1 complex (Homo sapiens, UniProt P50613); assay: CDK7 kinase inhibition assay (Caliper/LabChip EZ Reader); assay type: biochemical; settings: CDK7/Cyclin H/MAT1 6 nM, ATP 2 mM, 35 min at 27° C.
How it was run: as §1

HCC70 cells = assay: Inhibition of proliferation of HCC70 cells (CyQUANT Direct, 72 hour); assay type: cell-based, human; settings: read-out: Inhibition of Proliferation of HCC70 Cells (calculated IC50)
Experimental: HCC70 cells: HCC70 cells are a cell line derived from human triple negative breast cancer. Representative compounds of the invention were tested at different concentrations (from 4 μM to […]; 0.5 log serial dilutions) for their ability to inhibit the proliferation of HCC70 cells. Known CDK inhibitors dinaciclib or N-((1S,3R)-3-((5-chloro-4-(1H-indol-3-yl) pyrimidin-2-yl)amino)cyclohexyl)-5-((E)-4-(dimethylamino)but-2-enamido)picolinamide and triptolide were used as positive controls. Cells were grown in ATCC-formulated RPMI-1640 Medium (ATCC 30-2001)+10% FBS. The cells were cultured at 37° C. in a humidified chamber in the presence of 5% CO2. Proliferation assays were conducted over a 72 hour time period. CyQUANT® Direct Cell Proliferation Assay (Life Technologies, Chicago, Ill. USA) was used to assess the anti-proliferative effects of the compounds following manufacturer's directions and utilizing the reagents supplied with the CyQUANT® Direct Cell kit.

[2] = target: T1, CDK12 (aa686-1082)/Cyclin K complex (Homo sapiens, UniProt Q9NYV4); assay: CDK12 kinase inhibition assay (Caliper/LabChip EZ Reader); assay type: biochemical; settings: CDK12 (aa686-1082)/Cyclin K 50 nM, ATP 2 mM, 3 hr at 27° C.
T1 construct: CDK12 (aa686-1082)/Cyclin K complex
How it was run: as §1

CDK9/Cyclin T1 complex = CDK9/Cyclin T1 complex (Homo sapiens, UniProt P50750); assay: CDK9 kinase inhibition assay (Caliper/LabChip EZ Reader); assay type: biochemical; settings: CDK9/Cyclin T1 8 nM, ATP 2 mM, 15 min at 27° C.
How it was run: as §1

Chain of CDK9/Cyclin T1 complex (P50750 whole entry): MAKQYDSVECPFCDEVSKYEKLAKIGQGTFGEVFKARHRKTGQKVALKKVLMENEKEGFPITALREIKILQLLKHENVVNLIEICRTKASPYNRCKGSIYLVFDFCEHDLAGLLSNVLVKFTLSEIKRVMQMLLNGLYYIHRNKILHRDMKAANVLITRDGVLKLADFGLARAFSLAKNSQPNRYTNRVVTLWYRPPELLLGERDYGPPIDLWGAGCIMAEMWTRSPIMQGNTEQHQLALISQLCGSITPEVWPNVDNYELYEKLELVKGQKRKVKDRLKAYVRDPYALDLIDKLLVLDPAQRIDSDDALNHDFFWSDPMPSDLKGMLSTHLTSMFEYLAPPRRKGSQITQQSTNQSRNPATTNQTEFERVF
Chain of CDK9/Cyclin T1 complex (O60563 whole entry partner): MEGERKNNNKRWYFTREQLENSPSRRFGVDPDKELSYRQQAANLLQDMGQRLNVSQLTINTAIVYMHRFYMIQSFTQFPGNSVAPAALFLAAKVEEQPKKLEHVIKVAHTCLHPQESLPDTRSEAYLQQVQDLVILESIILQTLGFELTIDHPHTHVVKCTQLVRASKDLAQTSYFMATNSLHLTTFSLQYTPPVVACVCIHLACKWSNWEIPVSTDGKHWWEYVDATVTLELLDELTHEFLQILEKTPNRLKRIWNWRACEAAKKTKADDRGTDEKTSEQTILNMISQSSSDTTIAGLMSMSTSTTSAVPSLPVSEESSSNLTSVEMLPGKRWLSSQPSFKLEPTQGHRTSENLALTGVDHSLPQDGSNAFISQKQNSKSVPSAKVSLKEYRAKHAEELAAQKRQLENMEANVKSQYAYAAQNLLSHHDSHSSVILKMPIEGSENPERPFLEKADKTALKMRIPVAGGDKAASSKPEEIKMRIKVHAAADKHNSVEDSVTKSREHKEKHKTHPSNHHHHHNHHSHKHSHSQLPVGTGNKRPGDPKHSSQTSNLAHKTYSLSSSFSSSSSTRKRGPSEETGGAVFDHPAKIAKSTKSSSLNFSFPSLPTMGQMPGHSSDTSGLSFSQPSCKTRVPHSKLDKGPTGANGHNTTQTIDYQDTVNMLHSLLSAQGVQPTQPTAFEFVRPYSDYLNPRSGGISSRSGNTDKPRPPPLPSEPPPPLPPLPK
T1 sequence (Q9NYV4 686-1082): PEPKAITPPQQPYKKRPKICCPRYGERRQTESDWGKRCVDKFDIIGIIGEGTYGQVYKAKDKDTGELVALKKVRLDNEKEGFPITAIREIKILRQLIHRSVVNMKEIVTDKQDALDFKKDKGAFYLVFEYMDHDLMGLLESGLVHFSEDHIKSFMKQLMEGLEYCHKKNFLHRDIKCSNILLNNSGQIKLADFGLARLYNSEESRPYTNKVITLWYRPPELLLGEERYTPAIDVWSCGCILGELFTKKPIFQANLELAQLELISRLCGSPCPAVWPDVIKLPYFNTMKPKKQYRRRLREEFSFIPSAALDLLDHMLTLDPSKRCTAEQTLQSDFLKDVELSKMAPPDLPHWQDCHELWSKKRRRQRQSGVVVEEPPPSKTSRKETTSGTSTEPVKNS
T1 sequence (O75909 whole entry partner, the tested form may be a part): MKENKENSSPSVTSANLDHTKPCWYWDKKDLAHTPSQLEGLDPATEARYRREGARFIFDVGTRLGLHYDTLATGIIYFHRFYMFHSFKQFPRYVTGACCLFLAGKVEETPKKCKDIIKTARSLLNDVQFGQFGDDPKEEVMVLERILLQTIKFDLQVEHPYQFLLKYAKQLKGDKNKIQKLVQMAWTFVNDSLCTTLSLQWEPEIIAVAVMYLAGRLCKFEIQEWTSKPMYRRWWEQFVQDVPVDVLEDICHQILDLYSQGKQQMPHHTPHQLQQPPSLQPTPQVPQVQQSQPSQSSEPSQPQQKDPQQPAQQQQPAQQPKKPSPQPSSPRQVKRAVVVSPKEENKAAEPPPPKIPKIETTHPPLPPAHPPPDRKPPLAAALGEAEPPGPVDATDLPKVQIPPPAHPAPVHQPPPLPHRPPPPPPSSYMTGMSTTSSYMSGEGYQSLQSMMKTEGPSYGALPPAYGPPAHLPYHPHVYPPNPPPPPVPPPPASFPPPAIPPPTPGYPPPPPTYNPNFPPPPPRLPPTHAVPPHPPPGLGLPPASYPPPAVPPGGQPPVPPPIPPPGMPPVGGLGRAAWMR
Chain of CDK7/Cyclin H/MAT1 complex (P50613 whole entry): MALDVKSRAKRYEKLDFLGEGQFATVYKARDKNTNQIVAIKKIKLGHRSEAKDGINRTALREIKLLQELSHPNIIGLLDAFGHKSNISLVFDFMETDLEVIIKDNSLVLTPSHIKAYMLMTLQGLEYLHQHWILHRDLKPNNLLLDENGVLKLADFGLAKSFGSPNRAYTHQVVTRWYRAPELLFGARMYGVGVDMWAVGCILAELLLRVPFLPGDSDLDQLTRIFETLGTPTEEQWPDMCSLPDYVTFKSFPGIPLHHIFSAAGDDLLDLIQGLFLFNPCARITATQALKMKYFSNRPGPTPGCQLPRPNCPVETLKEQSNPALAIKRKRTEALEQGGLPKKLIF
Chain of CDK7/Cyclin H/MAT1 complex (P51946 whole entry partner): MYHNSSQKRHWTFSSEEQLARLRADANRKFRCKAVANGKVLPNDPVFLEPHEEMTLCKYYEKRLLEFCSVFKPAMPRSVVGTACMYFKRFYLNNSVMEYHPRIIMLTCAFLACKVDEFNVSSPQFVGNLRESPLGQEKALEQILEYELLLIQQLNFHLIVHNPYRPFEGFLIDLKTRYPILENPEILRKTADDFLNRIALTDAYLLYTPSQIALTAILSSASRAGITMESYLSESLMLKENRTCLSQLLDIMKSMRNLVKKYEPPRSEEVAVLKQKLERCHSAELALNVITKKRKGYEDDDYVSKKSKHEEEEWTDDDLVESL
Chain of CDK7/Cyclin H/MAT1 complex (P51948 whole entry partner): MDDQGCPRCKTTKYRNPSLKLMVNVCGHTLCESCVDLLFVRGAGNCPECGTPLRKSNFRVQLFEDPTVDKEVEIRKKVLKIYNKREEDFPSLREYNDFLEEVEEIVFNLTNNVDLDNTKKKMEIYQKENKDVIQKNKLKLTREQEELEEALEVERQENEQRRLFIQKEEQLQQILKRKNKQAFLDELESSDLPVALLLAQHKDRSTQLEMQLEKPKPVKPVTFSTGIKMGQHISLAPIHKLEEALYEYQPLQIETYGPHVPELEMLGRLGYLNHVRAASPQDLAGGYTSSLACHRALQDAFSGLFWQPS

| IC50 (CDK2/Cyclin E1 complex) | IC50 [1] | IC50 [2] | IC50 (CDK9/Cyclin T1 complex) | Structure (SMILES) | IC50 (HCC70 cells) |
| --- | --- | --- | --- | --- | --- |
| – | 20 to 200 nM | 200 to 5000 nM | – | FC(F)(F)c1cc2[nH]cc(-c3ccc4c(-c5nc(N[C@H]6CCCNC6)ncc5C(F)(F)F)c[nH]c4c3)c2cn1 [Compound 319] | 1000 to 5000 nM |
| – | 20 to 200 nM | 200 to 5000 nM | – | Cn1cc(-c2ccc3c(-c4nc(N[C@H]5CCCNC5)ncc4C(F)(F)F)c[nH]c3c2)c2cnc(C(F)(F)F)cc21 [Compound 320] | 1000 to 5000 nM |
| ≥ 5000 nM | < 20 nM | 200 to 5000 nM | ≥ 5000 nM | Cn1cc(-c2ccc3c(-c4nc(NC5CCCNC5)ncc4C(F)(F)F)c[nH]c3c2)ccc1=O (centres unmarked) [Compound 321] | 100 to 1000 nM |
| – | < 20 nM | 200 to 5000 nM | – | Nc1ncc2cccc(-c3ccc4c(-c5nc(NC6CCCNC6)ncc5C(F)(F)F)c[nH]c4c3)c2n1 (centres unmarked) [Compound 322] | 100 to 1000 nM |
| 200 to 5000 nM | < 20 nM | 200 to 5000 nM | ≥ 5000 nM | OCc1ncccc1-c1ccc2c(-c3nc(NC4CCCNC4)ncc3C(F)(F)F)c[nH]c2c1 (centres unmarked) [Compound 323] | 100 to 1000 nM |
| – | 20 to 200 nM | 200 to 5000 nM | – | OCCc1cccc(-c2ccc3c(-c4nc(NC5CCCNC5)ncc4C(F)(F)F)c[nH]c3c2)c1 (centres unmarked) [Compound 324] | 100 to 1000 nM |
| – | 20 to 200 nM | 200 to 5000 nM | – | FC(F)(F)c1cnc(N[C@H]2CCCNC2)nc1-c1c[nH]c2cc(-c3ccc4ccncc4c3)ccc12 [Compound 325] | 100 to 1000 nM |
| – | 20 to 200 nM | 200 to 5000 nM | – | NS(=O)(=O)c1cccc(-c2ccc3c(-c4nc(NC5CCCNC5)ncc4C(F)(F)F)c[nH]c3c2)c1 (centres unmarked) [Compound 326] | 100 to 1000 nM |
| – | 20 to 200 nM | 200 to 5000 nM | – | CCOc1ccccc1-c1ccc2c(-c3nc(NC4CCCNC4)ncc3C(F)(F)F)c[nH]c2c1 (centres unmarked) [Compound 327] | 100 to 1000 nM |
| – | 20 to 200 nM | 200 to 5000 nM | – | NS(=O)(=O)c1ccc(-c2ccc3c(-c4nc(N[C@H]5CCCNC5)ncc4C(F)(F)F)c[nH]c3c2)cc1 [Compound 331] | 100 to 1000 nM |
| – | 20 to 200 nM | 200 to 5000 nM | – | Cn1ncc2ccc(-c3ccc4c(-c5nc(NC6CCCNC6)ncc5C(F)(F)F)c[nH]c4c3)cc21 (centres unmarked) [Compound 337] | 100 to 1000 nM |

The next lines start with the compound.

| Structure (SMILES) | IC50 (CDK2/Cyclin E1 complex) | IC50 [1] | IC50 [2] | IC50 (CDK9/Cyclin T1 complex) | IC50 (HCC70 cells) |
| --- | --- | --- | --- | --- | --- |
| O=C(c1ccc2c(-c3nc(NC4CCCNC4)ncc3C(F)(F)F)c[nH]c2c1)N1CC(O)C(F)(F)C1 (centres unmarked) [Compound 308] | 200 to 5000 nM | < 20 nM | 200 to 5000 nM | 200 to 5000 nM | 100 to 1000 nM |
| CCC1(O)CCN(C(=O)c2ccc3c(-c4nc(NC5CCCNC5)ncc4C(F)(F)F)c[nH]c3c2)C1 (centres unmarked) [Compound 309] | ≥ 5000 nM | 20 to 200 nM | 200 to 5000 nM | ≥ 5000 nM | 1000 to 5000 nM |
| Oc1ncccc1-c1ccc2c(-c3nc(NC4CCCNC4)ncc3C(F)(F)F)c[nH]c2c1 (centres unmarked) [Compound 310] | 200 to 5000 nM | < 20 nM | 200 to 5000 nM | ≥ 5000 nM | 100 to 1000 nM |
| Cc1c(-c2ccc3c(-c4nc(NC5CCCNC5)ncc4C(F)(F)F)c[nH]c3c2)c[nH]c(=O)c1C#N (centres unmarked) [Compound 311] | 200 to 5000 nM | < 20 nM | 200 to 5000 nM | 200 to 5000 nM | 1000 to 5000 nM |
| FC(F)(F)c1cnc(NC2CCCNC2)nc1-c1c[nH]c2cc(-c3ccc4[nH]cnc4c3)ccc12 (centres unmarked) [Compound 313] | 200 to 5000 nM | < 20 nM | 200 to 5000 nM | 200 to 5000 nM | 100 to 1000 nM |
| NC(=O)c1cccc(-c2ccc3c(-c4nc(NC5CCCNC5)ncc4C(F)(F)F)c[nH]c3c2)c1 (centres unmarked) [Compound 314] | 200 to 5000 nM | < 20 nM | 200 to 5000 nM | 200 to 5000 nM | 100 to 1000 nM |
| OCc1cccc(-c2ccc3c(-c4nc(NC5CCCNC5)ncc4C(F)(F)F)c[nH]c3c2)n1 (centres unmarked) [Compound 316] | 200 to 5000 nM | < 20 nM | 200 to 5000 nM | ≥ 5000 nM | 100 to 1000 nM |
| OCc1cncc(-c2ccc3c(-c4nc(NC5CCCNC5)ncc4C(F)(F)F)c[nH]c3c2)c1 (centres unmarked) [Compound 318] | 200 to 5000 nM | < 20 nM | 200 to 5000 nM | 200 to 5000 nM | 100 to 1000 nM |

Reference: US20230000870A1, “METHODS OF TREATING CANCER IN BIOMARKER-IDENTIFIED PATIENTS WITH INHIBITORS OF CYCLIN-DEPENDENT KINASE 7 (CDK7)” (Syros Pharmaceuticals, Inc., priority 2019, published 2023)
